Assay results as given in patent US11021467B2, “Phosphatidylinositol 3-kinase inhibitors” (Gilead Sciences, Inc., priority 2014, dated 2021).

Assays:
Assay in all cases: TR-FRET enzymatic activity assay against PI3K isoforms
Assay type in all cases: biochemical
[1] = target: PI3Kβ (Homo sapiens (Human), UniProt P42338); conditions: for IC50: PI3Kβ, TR-FRET, 2×Km ATP, 30 minutes at 25° C.; for PI3Kγ/PI3Kβ ratio: ratio of IC50 values, selectivity for PI3Kβ over PI3Kγ
Text: (§1) The compounds of formula (I) were characterized for their enzymatic activity against the PI3K isoforms. […] TR-FRET monitored the formation of 3,4,5-inositol triphosphate molecule that competed with fluorescently labeled PIP3 for binding to the GRP-1 pleckstrin homology domain protein.

[2] = target: PI3Kγ (Homo sapiens (Human), UniProt P48736); conditions: 2×Km ATP, 30 minutes at 25° C.
Text: as §1

[3] = target: PI3Kδ (Homo sapiens (Human), UniProt O00329); conditions: 2×Km ATP, 30 minutes at 25° C.
Text: as §1

PI3Kβ, sequence (P42338 whole entry, the tested form may be a part, canonical isoform): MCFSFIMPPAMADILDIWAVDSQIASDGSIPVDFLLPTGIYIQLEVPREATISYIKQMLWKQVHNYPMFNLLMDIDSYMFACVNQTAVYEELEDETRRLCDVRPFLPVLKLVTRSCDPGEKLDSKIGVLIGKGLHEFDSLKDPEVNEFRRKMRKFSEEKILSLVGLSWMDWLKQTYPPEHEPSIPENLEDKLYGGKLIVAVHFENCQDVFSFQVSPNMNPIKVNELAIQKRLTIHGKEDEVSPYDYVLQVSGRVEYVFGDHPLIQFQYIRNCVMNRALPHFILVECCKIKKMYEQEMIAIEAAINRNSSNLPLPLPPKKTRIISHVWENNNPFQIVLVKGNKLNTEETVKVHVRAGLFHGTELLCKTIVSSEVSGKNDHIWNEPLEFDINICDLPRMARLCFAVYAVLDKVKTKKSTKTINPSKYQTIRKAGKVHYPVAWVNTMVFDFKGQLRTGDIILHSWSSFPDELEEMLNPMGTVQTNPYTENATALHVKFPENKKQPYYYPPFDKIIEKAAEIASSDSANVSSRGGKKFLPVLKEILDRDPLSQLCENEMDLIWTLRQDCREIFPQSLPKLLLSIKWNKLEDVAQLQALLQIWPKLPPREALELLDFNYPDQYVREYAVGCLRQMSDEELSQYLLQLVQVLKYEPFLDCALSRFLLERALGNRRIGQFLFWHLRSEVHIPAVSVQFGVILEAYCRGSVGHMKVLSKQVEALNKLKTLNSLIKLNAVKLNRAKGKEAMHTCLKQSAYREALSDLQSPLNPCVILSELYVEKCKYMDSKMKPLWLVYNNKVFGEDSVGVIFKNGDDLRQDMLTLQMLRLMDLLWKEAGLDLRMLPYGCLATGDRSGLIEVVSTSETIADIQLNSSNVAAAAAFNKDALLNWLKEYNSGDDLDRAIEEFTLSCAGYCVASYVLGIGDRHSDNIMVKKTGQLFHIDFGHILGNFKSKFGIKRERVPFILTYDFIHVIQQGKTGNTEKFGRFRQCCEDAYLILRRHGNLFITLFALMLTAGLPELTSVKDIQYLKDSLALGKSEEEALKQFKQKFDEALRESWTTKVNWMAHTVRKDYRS
PI3Kβ, sequence (P27986 whole entry partner, the tested form may be a part, canonical isoform): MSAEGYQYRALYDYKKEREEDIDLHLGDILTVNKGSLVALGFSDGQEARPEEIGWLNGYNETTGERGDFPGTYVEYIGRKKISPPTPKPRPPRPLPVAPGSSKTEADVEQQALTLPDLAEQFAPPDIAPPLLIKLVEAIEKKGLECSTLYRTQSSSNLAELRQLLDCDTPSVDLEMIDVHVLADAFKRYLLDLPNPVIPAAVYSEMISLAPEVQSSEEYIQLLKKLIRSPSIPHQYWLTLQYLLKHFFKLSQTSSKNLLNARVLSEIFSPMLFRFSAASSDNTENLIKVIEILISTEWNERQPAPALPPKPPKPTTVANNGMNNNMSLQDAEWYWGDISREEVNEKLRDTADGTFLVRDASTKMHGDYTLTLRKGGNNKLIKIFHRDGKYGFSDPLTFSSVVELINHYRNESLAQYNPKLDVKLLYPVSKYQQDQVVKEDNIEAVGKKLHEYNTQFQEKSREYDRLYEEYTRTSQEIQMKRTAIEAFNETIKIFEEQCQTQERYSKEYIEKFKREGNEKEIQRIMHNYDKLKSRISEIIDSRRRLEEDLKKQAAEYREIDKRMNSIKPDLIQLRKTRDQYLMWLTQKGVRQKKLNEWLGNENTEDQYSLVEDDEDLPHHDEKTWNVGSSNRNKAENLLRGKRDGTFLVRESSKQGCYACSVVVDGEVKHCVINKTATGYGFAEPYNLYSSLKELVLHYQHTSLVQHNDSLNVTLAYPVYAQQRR
PI3Kδ, sequence (O00329 whole entry): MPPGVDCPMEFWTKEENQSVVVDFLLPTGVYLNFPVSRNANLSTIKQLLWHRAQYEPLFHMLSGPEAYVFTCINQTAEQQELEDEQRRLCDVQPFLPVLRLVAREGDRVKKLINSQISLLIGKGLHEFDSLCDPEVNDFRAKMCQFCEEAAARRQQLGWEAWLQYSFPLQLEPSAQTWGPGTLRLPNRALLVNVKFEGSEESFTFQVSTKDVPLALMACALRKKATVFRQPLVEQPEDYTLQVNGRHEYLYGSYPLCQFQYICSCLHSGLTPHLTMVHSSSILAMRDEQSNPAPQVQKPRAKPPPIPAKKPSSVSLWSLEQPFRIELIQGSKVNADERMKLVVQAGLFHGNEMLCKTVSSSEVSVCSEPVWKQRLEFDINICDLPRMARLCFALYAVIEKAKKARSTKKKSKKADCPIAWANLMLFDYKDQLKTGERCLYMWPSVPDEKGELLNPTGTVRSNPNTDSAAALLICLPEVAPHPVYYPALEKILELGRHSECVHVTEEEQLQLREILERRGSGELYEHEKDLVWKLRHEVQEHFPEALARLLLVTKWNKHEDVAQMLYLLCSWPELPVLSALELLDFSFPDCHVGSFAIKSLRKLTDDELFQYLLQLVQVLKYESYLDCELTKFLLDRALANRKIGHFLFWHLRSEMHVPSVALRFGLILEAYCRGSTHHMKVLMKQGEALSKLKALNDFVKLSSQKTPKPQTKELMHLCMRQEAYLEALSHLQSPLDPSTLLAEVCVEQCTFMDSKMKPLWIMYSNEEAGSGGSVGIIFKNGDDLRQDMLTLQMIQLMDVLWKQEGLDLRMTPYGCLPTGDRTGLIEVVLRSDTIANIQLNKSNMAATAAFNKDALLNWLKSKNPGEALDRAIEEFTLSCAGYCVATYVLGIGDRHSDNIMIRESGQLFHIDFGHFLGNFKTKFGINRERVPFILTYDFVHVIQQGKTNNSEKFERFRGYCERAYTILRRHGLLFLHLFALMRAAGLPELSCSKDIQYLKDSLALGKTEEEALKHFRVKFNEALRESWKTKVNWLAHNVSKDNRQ
PI3Kδ, sequence (P27986 whole entry partner): as the sequence (P27986 whole entry partner, the tested form may be a part, canonical isoform) above
PI3Kγ, sequence (P48736 whole entry): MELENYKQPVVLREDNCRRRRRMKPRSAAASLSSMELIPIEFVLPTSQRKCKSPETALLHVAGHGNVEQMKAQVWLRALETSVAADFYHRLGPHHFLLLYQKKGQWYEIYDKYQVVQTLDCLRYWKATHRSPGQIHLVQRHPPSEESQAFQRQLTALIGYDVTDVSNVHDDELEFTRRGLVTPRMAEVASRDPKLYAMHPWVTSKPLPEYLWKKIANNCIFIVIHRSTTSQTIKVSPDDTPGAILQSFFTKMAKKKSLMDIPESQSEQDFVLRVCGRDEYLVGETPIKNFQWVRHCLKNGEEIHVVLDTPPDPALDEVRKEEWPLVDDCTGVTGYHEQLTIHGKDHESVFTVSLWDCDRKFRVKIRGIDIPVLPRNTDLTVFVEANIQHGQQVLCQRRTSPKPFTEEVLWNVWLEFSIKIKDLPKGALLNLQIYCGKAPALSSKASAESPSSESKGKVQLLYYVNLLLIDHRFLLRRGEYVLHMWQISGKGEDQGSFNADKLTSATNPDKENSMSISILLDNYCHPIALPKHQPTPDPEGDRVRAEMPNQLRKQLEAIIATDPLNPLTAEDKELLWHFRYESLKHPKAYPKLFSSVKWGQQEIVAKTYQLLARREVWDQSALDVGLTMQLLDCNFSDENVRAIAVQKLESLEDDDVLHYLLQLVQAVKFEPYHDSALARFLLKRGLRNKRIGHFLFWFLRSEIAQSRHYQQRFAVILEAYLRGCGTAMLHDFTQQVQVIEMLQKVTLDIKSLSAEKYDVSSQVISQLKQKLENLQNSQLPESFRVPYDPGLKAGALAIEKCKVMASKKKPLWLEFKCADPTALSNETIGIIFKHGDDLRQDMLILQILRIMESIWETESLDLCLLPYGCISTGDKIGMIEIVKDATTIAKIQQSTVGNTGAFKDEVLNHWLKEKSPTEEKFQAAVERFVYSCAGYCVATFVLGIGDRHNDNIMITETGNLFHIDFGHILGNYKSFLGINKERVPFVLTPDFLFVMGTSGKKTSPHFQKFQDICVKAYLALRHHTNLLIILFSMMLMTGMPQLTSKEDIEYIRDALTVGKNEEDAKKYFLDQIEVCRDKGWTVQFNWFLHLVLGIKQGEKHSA

In the case of `C[C@H](Nc1nc(N)nc(N)c1C#N)c1nc2cccc(Cl)c2c(=O)n1CCCN(C)CC(F)(F)F` [Compound 62, (S)-2,4-diamino-6-((1-(5-chloro-3-(3-(methyl(2,2,2-trifluoroethyl)amino)propyl)-4-oxo-3,4-dihydroquinazolin-2-yl)ethyl)amino)pyrimidine-5-carbonitrile], the IC50 [1] is reported as 320 nM, the IC50 [2] is reported as 960 nM and the IC50 [3] is reported as 4 nM.
For `C[C@H](Nc1ncnc(N)c1C#N)c1nc2cccc(Cl)c2c(=O)n1CC1CCNC1` (stereo partly drawn) [Compound 89, 4-amino-6-(((1S)-1-(5-chloro-4-oxo-3-(pyrrolidin-3-ylmethyl)-3,4-dihydroquinazolin-2-yl)ethyl)amino)pyrimidine-5-carbonitrile], the IC50 [1] was 54 nM, the IC50 [2] was at least 10000 nM and the IC50 [3] was 3 nM.
`Cc1nc(N)nc(N[C@@H](C)c2nc3cccc(Cl)c3c(=O)n2CCCN(C)Cc2ccccc2)c1C#N` [Compound 61, (S)-2-amino-4-((1-(3-(3-(benzyl(methyl)amino)propyl)-5-chloro-4-oxo-3,4-dihydroquinazolin-2-yl)ethyl)amino)-6-methylpyrimidine-5-carbonitrile] was tested, and the IC50 [1] was 140 nM, the IC50 [2] was 6600 nM and the IC50 [3] was 7 nM.
Compound `CC(C)C[C@H](Nc1ncnc(N)c1C#N)c1nc2cccc(Cl)c2c(=O)n1CCCN` [Compound 33, (S)-4-amino-6-((1-(3-(3-aminopropyl)-5-chloro-4-oxo-3,4-dihydroquinazolin-2-yl)-3-methylbutyl)amino)pyrimidine-5-carbonitrile] has an IC50 [1] of 2100 nM, an IC50 [2] of at least 10000 nM and an IC50 [3] of 210 nM.
`C[C@H](Nc1ncnc(N)c1C#N)c1nc2cccc(Cl)c2c(=O)n1CC1CNCCO1` (stereo partly drawn) [Compound 88, 4-amino-6-(((1S)-1-(5-chloro-3-(morpholin-2-ylmethyl)-4-oxo-3,4-dihydroquinazolin-2-yl)ethyl)amino)pyrimidine-5-carbonitrile] gave an IC50 [1] of 250 nM, an IC50 [2] of at least 10000 nM and an IC50 [3] of 42 nM.
`C[C@H](Nc1ncnc(N)c1C#N)c1nc2cccc(Cl)c2c(=O)n1CC1CCCNC1` (stereo partly drawn) [Compound 92, 4-amino-6-(((1S)-1-(5-chloro-4-oxo-3-(piperidin-3-ylmethyl)-3,4-dihydroquinazolin-2-yl)ethyl)amino)pyrimidine-5-carbonitrile] was tested, and the IC50 [1] was 320 nM, the IC50 [2] was at least 10000 nM and the IC50 [3] was 7 nM.
`NC(=O)CCCCn1c([C@@H](Nc2nc(N)nc(N)c2Cl)C2CC2)nc2cccc(Cl)c2c1=O` [Compound 59, (S)-5-(5-chloro-2-(cyclopropyl((2,6-diamino-5-chloropyrimidin-4-yl)amino)methyl)-4-oxoquinazolin-3(4H)-yl)pentanamide] gave an IC50 [1] of 500 nM, an IC50 [2] of 2200 nM and an IC50 [3] of 8 nM.
`N#Cc1c(N)nc(N)nc1N[C@H](c1nc2cccc(Cl)c2c(=O)n1CCCNC1CCC(F)(F)CC1)C1CC1` [Compound 56, (S)-2,4-diamino-6-(((5-chloro-3-(3-((4,4-difluorocyclohexyl)amino)propyl)-4-oxo-3,4-dihydroquinazolin-2-yl)(cyclopropyl)methyl)amino)pyrimidine-5-carbonitrile] showed an IC50 [1] of 4 nM, an IC50 [2] of 540 nM and an IC50 [3] of 0.4 nM.
`Cc1cccc2nc([C@H](C)Nc3ncnc(N)c3C#N)n(CCCN)c(=O)c12` [Compound 29, (S)-4-amino-6-((1-(3-(3-aminopropyl)-5-methyl-4-oxo-3,4-dihydroquinazolin-2-yl)ethyl)amino)pyrimidine-5-carbonitrile] gave an IC50 [1] of 47 nM, an IC50 [2] of at least 10000 nM and an IC50 [3] of 7 nM.
Work on `C[C@H](Nc1nc(N)nc(N)c1C#N)c1nc2cccc(Cl)c2c(=O)n1C[C@@H]1CCNC1` [Compound 126, 2,4-diamino-6-(((S)-1-(5-chloro-4-oxo-3-((R)-pyrrolidin-3-ylmethyl)-3,4-dihydroquinazolin-2-yl)ethyl)amino)pyrimidine-5-carbonitrile] yielded an IC50 [1] of 24 nM, an IC50 [2] of 2500 nM and an IC50 [3] of 0.9 nM.
Work on `N#Cc1c(N)nc(N)nc1N[C@H](c1nc2c(Cl)cc(F)cc2c(=O)n1[C@H]1C[C@@H](O)C1)C1CC1` [Compound 102, 2,4-diamino-6-(((S)-(8-chloro-6-fluoro-3-((cis)-3-hydroxycyclobutyl)-4-oxo-3,4-dihydroquinazolin-2-yl)(cyclopropyl)methyl)amino)pyrimidine-5-carbonitrile] yielded an IC50 [1] of 66 nM, an IC50 [2] of 1100 nM and an IC50 [3] of 2 nM.
With `CC(CCN)n1c([C@H](C)Nc2ncnc(N)c2C#N)nc2cccc(Cl)c2c1=O` (stereo partly drawn) [Compound 24, 4-amino-6-(((1S)-1-(3-(4-aminobutan-2-yl)-5-chloro-4-oxo-3,4-dihydroquinazolin-2-yl)ethyl)amino)pyrimidine-5-carbonitrile] the IC50 [1] was 51 nM, the IC50 [2] was at least 10000 nM and the IC50 [3] was 6 nM.
`C[C@H](Nc1ncnc(N)c1C#N)c1nc2cccc(Cl)c2c(=O)n1CCCN1CCN(C)CC1` [Compound 135, (S)-4-amino-6-((1-(5-chloro-3-(3-(4-methylpiperazin-1-yl)propyl)-4-oxo-3,4-dihydroquinazolin-2-yl)ethyl)amino)pyrimidine-5-carbonitrile] was tested, and the IC50 [1] was 640 nM, the IC50 [2] was at least 10000 nM and the IC50 [3] was 6 nM.
`NCCCn1c([C@@H](Nc2nc(N)nc(N)c2Cl)C2CC2)nc2cccc(Cl)c2c1=O` [Compound 38, (S)-3-(3-aminopropyl)-5-chloro-2-(cyclopropyl((2,6-diamino-5-chloropyrimidin-4-yl)amino)methyl)quinazolin-4(3H)-one] gave an IC50 [1] of 44 nM, an IC50 [2] of at least 10000 nM and an IC50 [3] of 12 nM.
`C[C@H](Nc1nc(N)nc(N)c1C#N)c1nc2cccc(Cl)c2c(=O)n1Cc1cc[nH]n1` [Compound 76, (S)-4-((1-(3-((1H-pyrazol-3-yl)methyl)-5-chloro-4-oxo-3,4-dihydroquinazolin-2-yl)ethyl)amino)-2,6-diaminopyrimidine-5-carbonitrile] showed an IC50 [1] of 46 nM, an IC50 [2] of 160 nM and an IC50 [3] of 2 nM.
With `N#Cc1c(N)nc(N)nc1N[C@@H](c1ccccc1)c1nc2cccc(Cl)c2c(=O)n1CCCN` [Compound 1, (S)-2,4-diamino-6-(((3-(3-aminopropyl)-5-chloro-4-oxo-3,4-dihydroquinazolin-2-yl)(phenyl)methyl)amino)pyrimidine-5-carbonitrile] the IC50 [1] was 27 nM, the IC50 [2] was at least 10000 nM and the IC50 [3] was 9 nM.
Work on `COC[C@H](C)n1c([C@H](C)Nc2nc(N)nc(N)c2C#N)nc2cccc(Cl)c2c1=O` [Compound 132, 2,4-diamino-6-(((S)-1-(5-chloro-3-((S)-1-methoxypropan-2-yl)-4-oxo-3,4-dihydroquinazolin-2-yl)ethyl)amino)pyrimidine-5-carbonitrile] yielded an IC50 [1] of 58 nM, an IC50 [2] of 330 nM and an IC50 [3] of 2 nM.
`C[C@H](Nc1nc(N)nc(N)c1C#N)c1nc2cccc(Cl)c2c(=O)n1CCN(C)C` [Compound 58, (S)-2,4-diamino-6-((1-(5-chloro-3-(2-(dimethylamino)ethyl)-4-oxo-3,4-dihydroquinazolin-2-yl)ethyl)amino)pyrimidine-5-carbonitrile] showed an IC50 [1] of 460 nM, an IC50 [2] of 6600 nM and an IC50 [3] of 24 nM.
In the case of `CNCCCn1c([C@@H](Nc2nc(N)nc(N)c2C#N)C2CC2)nc2cccc(Cl)c2c1=O` [Compound 46, (S)-2,4-diamino-6-(((5-chloro-3-(3-(methylamino)propyl)-4-oxo-3,4-dihydroquinazolin-2-yl)(cyclopropyl)methyl)amino)pyrimidine-5-carbonitrile], the IC50 [1] is reported as 6 nM, the IC50 [2] is reported as 2500 nM and the IC50 [3] is reported as 3 nM.
For `CC(C)NCC(O)CCn1c([C@H](C)Nc2nc(N)nc(N)c2C#N)nc2cccc(Cl)c2c1=O` (stereo partly drawn) [Compound 74, 2,4-diamino-6-(((1S)-1-(5-chloro-3-(3-hydroxy-4-(isopropylamino)butyl)-4-oxo-3,4-dihydroquinazolin-2-yl)ethyl)amino)pyrimidine-5-carbonitrile], the IC50 [1] was 17 nM, the IC50 [2] was 1620 nM and the IC50 [3] was 1 nM.
`C[C@H](Nc1ncnc(N)c1C#N)c1nc2cccc(Cl)c2c(=O)n1N(CCN)Cc1ccccc1` [Compound 12, (S)-4-amino-6-((1-(3-((2-aminoethyl)(benzyl)amino)-5-chloro-4-oxo-3,4-dihydroquinazolin-2-yl)ethyl)amino)pyrimidine-5-carbonitrile] gave an IC50 [1] of 300 nM, an IC50 [2] of at least 10000 nM and an IC50 [3] of 52 nM.
With `CC[C@H](Nc1nc(N)nc(N)c1C#N)c1nc2cccc(Cl)c2c(=O)n1CCCN` [Compound 36, (S)-2,4-diamino-6-((1-(3-(3-aminopropyl)-5-chloro-4-oxo-3,4-dihydroquinazolin-2-yl)propyl)amino)pyrimidine-5-carbonitrile] the IC50 [1] was 71 nM, the IC50 [2] was 8200 nM and the IC50 [3] was 27 nM.
`CS(=O)(=O)CCCCn1c([C@@H](Nc2nc(N)nc(N)c2C#N)C2CC2)nc2cccc(Cl)c2c1=O` [Compound 122, (S)-2,4-diamino-6-(((5-chloro-3-(4-(methylsulfonyl)butyl)-4-oxo-3,4-dihydroquinazolin-2-yl)(cyclopropyl)methyl)amino)pyrimidine-5-carbonitrile] showed an IC50 [1] of 23 nM, an IC50 [2] of 120 nM and an IC50 [3] of 0.7 nM.
Work on `C[C@H](Nc1ncnc(N)c1C#N)c1nc2cccc(Cl)c2c(=O)n1[C@H]1C[C@H](N)C1` [Compound 86, (S)-4-amino-6-((1-(3-(3-aminocyclobutyl)-5-chloro-4-oxo-3,4-dihydroquinazolin-2-yl)ethyl)amino)pyrimidine-5-carbonitrile] yielded an IC50 [1] of 620 nM, an IC50 [2] of at least 10000 nM and an IC50 [3] of 24 nM.
In the case of `C[C@H](Nc1nc(N)nc(N)c1C#N)c1nc2cccc(Cl)c2c(=O)n1-c1ccccc1` [Compound X, (S)-2,4-diamino-6-((1-(5-chloro-4-oxo-3-phenyl-3,4-dihydroquinazolin-2-yl)ethyl)amino)pyrimidine-5-carbonitrile, reference compound], the PI3Kγ/PI3Kβ ratio [1] is reported as 0.6 and the PI3Kγ/PI3Kβ ratio ([1]; listed as (S)-2,4-diamino-6-(1-(5-chloro-4-oxo-3-phenyl-3,4-dihydroquinazolin-2-yl)ethyl)) is reported as “less than 1”.
